Organism: Sus scrofa
Test: Inhibition of porcine kidney Alpha alpha-trehalase using p-nitrophenyl glycoside as substrate assessed as release of p-nitrophenol at 1000 uM by spectrometric analysis relative to control

SMILES	inhibition
O[C@@H]1[C@@H]2[C@H](O)CC(F)(F)CN2C[C@@H]1O	1.5%
O[C@H]1[C@H]2[C@@H](O)CC(F)(F)CN2C[C@H]1O	1.5%

System: Oryza sativa
Test: Inhibition of rice Alpha-glucosidase using p-nitrophenyl glycoside as substrate assessed as p-nitrophenol release at 1000 uM by spectrometric analysis relative to control

SMILES	inhibition
O[C@@H]1[C@@H]2[C@H](O)CC(F)(F)CN2C[C@@H]1O	0%
O[C@@H]1[C@@H]2[C@@H](O)C[C@H](F)CN2C[C@@H]1O	0%
O[C@H]1[C@H]2[C@@H](O)CC(F)(F)CN2C[C@H]1O	2.5%

System: Aspergillus niger
Test: Inhibition of Aspergillus niger amyloglucosidase using p-nitrophenyl glycoside as substrate assessed as release of p-nitrophenol at 1000 uM by spectrometric analysis relative to control

SMILES	inhibition
O[C@@H]1[C@@H]2[C@H](O)CC(F)(F)CN2C[C@@H]1O	0.1%
O[C@@H]1[C@@H]2[C@@H](O)C[C@H](F)CN2C[C@@H]1O	17.7%
O[C@H]1[C@H]2[C@@H](O)CC(F)(F)CN2C[C@H]1O	1.8%

Molecular target: Alpha-galactosidase (Coffea arabica) (UniProt Q42656)
Test: Inhibition of coffee bean alpha-galactosidase using p-nitrophenyl glycoside as substrate assessed as release of p-nitrophenol at 1000 uM by spectrometric analysis relative to control

Alpha-galactosidase (Coffea arabica), sequence (Q42656 16-378 limits assumed): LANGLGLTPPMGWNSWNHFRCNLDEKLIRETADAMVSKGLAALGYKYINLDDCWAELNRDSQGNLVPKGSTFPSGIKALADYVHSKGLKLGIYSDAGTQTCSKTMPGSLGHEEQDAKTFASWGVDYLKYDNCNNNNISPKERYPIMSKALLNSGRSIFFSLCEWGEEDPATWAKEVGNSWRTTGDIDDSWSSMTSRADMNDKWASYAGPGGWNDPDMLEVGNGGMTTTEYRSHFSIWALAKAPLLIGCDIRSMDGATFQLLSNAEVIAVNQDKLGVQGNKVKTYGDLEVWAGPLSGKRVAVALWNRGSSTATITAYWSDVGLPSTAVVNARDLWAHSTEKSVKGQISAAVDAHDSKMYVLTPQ

SMILES	inhibition
O[C@@H]1[C@@H]2[C@H](O)CC(F)(F)CN2C[C@@H]1O	0%
O[C@@H]1[C@@H]2[C@@H](O)C[C@H](F)CN2C[C@@H]1O	0%
O[C@H]1[C@H]2[C@@H](O)CC(F)(F)CN2C[C@H]1O	0%

System: Penicillium decumbens
Test: Inhibition of Penicillium decumbens alpha-L-rhamnosidase using p-nitrophenyl glycoside as substrate assessed as release of p-nitrophenol at 1000 uM by spectrometric analysis relative to control

SMILES	inhibition
O[C@@H]1[C@@H]2[C@H](O)CC(F)(F)CN2C[C@@H]1O	63%
O[C@@H]1[C@@H]2[C@@H](O)C[C@H](F)CN2C[C@@H]1O	0.43%
O[C@H]1[C@H]2[C@@H](O)CC(F)(F)CN2C[C@H]1O	144%

Organism: Bos taurus
Test: Inhibition of bovine liver beta-galactosidase using p-nitrophenyl glycoside as substrate assessed as release of p-nitrophenol at 1000 uM by spectrometric analysis relative to control

SMILES	inhibition
O[C@@H]1[C@@H]2[C@H](O)CC(F)(F)CN2C[C@@H]1O	0.8%
O[C@@H]1[C@@H]2[C@@H](O)C[C@H](F)CN2C[C@@H]1O	11.7%
O[C@H]1[C@H]2[C@@H](O)CC(F)(F)CN2C[C@H]1O	0%

Organism: Rattus norvegicus
Test: Inhibition of rat intestinal Alpha-glucosidase using p-nitrophenyl glycoside as substrate assessed as p-nitrophenol release at 1000 uM by spectrometric analysis relative to control

SMILES	inhibition
O[C@@H]1[C@@H]2[C@H](O)CC(F)(F)CN2C[C@@H]1O	2.7%
O[C@@H]1[C@@H]2[C@@H](O)C[C@H](F)CN2C[C@@H]1O	18.3%
O[C@H]1[C@H]2[C@@H](O)CC(F)(F)CN2C[C@H]1O	25%

System: Prunus dulcis
Test: Inhibition of almond Beta-glucosidase using p-nitrophenyl glycoside as substrate assessed as release of p-nitrophenol at 1000 uM by spectrometric analysis relative to control

SMILES	inhibition
O[C@@H]1[C@@H]2[C@H](O)CC(F)(F)CN2C[C@@H]1O	0%
O[C@@H]1[C@@H]2[C@@H](O)C[C@H](F)CN2C[C@@H]1O	0%
O[C@H]1[C@H]2[C@@H](O)CC(F)(F)CN2C[C@H]1O	3.7%

Organism: Bos taurus
Test: Inhibition of bovine liver beta-glucuronidase using p-nitrophenyl glycoside as substrate assessed as release of p-nitrophenol at 1000 uM by spectrometric analysis relative to control

SMILES	inhibition
O[C@@H]1[C@@H]2[C@H](O)CC(F)(F)CN2C[C@@H]1O	18.8%
O[C@@H]1[C@@H]2[C@@H](O)C[C@H](F)CN2C[C@@H]1O	12.5%
O[C@H]1[C@H]2[C@@H](O)CC(F)(F)CN2C[C@H]1O	11.4%

Molecular target: Alpha glucosidase (Homo sapiens) (UniProt O43451+P10253+P14410+Q2M2H8)
Test: Inhibition of human Alpha-glucosidase using p-nitrophenyl glycoside as substrate assessed as p-nitrophenol release at 1000 uM by spectrometric analysis relative to control
Type: protein assay

SMILES	inhibition
O[C@@H]1[C@@H]2[C@H](O)CC(F)(F)CN2C[C@@H]1O	2.2%
O[C@@H]1[C@@H]2[C@@H](O)C[C@H](F)CN2C[C@@H]1O	5.1%
O[C@H]1[C@H]2[C@@H](O)CC(F)(F)CN2C[C@H]1O	0.4%

Organism: Homo sapiens
Test: Inhibition of human lysosome beta-glucosidase using p-nitrophenyl glycoside as substrate assessed as release of p-nitrophenol at 1000 uM by spectrometric analysis relative to control

SMILES	inhibition
O[C@@H]1[C@@H]2[C@H](O)CC(F)(F)CN2C[C@@H]1O	0.7%
O[C@@H]1[C@@H]2[C@@H](O)C[C@H](F)CN2C[C@@H]1O	9.6%
O[C@H]1[C@H]2[C@@H](O)CC(F)(F)CN2C[C@H]1O	0%

Organism: Bos taurus
Test: Inhibition of bovine liver beta-glucosidase using p-nitrophenyl glycoside as substrate assessed as release of p-nitrophenol at 1000 uM by spectrometric analysis relative to control

SMILES	inhibition
O[C@@H]1[C@@H]2[C@H](O)CC(F)(F)CN2C[C@@H]1O	10.2%
O[C@@H]1[C@@H]2[C@@H](O)C[C@H](F)CN2C[C@@H]1O	16%
O[C@H]1[C@H]2[C@@H](O)CC(F)(F)CN2C[C@H]1O	5.8%

System: Escherichia coli
Test: Inhibition of Escherichia coli beta-glucuronidase using p-nitrophenyl glycoside as substrate assessed as release of p-nitrophenol at 1000 uM by spectrometric analysis relative to control

SMILES	inhibition
O[C@@H]1[C@@H]2[C@H](O)CC(F)(F)CN2C[C@@H]1O	0%
O[C@@H]1[C@@H]2[C@@H](O)C[C@H](F)CN2C[C@@H]1O	9.3%
O[C@H]1[C@H]2[C@@H](O)CC(F)(F)CN2C[C@H]1O	0%

Molecular target: Alpha-glucosidase (Saccharomyces cerevisiae S288c) (UniProt P53341+P38158+P07265)
Test: Inhibition of yeast Alpha-glucosidase using p-nitrophenyl glycoside as substrate assessed as p-nitrophenol release at 1000 uM by spectrometric analysis relative to control
Type: protein assay

SMILES	inhibition
O[C@@H]1[C@@H]2[C@H](O)CC(F)(F)CN2C[C@@H]1O	0%
O[C@@H]1[C@@H]2[C@@H](O)C[C@H](F)CN2C[C@@H]1O	4.5%
O[C@H]1[C@H]2[C@@H](O)CC(F)(F)CN2C[C@H]1O	1.1%

Molecular target: T1, Alpha-mannosidase (Canavalia ensiformis) (UniProt C0HJB3)
T1 sequence (whole entry): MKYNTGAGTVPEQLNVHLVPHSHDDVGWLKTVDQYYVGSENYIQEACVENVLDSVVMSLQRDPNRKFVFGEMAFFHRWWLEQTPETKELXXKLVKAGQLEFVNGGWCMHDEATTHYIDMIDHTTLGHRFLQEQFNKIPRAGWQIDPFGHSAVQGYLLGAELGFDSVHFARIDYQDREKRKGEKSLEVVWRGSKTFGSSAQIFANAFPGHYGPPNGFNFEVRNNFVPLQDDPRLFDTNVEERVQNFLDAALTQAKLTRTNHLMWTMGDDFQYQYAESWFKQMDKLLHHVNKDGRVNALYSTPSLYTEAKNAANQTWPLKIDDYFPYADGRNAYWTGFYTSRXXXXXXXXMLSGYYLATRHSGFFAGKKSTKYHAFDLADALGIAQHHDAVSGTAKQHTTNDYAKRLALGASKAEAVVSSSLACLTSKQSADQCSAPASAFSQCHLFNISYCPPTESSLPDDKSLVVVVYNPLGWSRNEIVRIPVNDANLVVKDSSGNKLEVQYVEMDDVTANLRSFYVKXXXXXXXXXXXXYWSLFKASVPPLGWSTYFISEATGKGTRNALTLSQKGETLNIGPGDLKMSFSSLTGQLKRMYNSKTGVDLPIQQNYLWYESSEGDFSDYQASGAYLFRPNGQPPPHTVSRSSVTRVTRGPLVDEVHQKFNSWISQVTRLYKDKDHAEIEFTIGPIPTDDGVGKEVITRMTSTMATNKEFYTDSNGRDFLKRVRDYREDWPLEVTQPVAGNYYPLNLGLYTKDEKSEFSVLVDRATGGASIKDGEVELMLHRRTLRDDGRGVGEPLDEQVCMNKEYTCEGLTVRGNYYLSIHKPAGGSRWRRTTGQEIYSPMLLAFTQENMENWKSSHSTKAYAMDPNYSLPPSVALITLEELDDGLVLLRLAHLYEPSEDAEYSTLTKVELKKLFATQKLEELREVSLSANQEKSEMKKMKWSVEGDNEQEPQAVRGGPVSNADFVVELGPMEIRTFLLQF
Test: Inhibition of jack bean alpha-mannosidase using p-nitrophenyl glycoside as substrate assessed as release of p-nitrophenol at 1000 uM by spectrometric analysis relative to control

SMILES	inhibition
O[C@@H]1[C@@H]2[C@H](O)CC(F)(F)CN2C[C@@H]1O	44.8%
O[C@@H]1[C@@H]2[C@@H](O)C[C@H](F)CN2C[C@@H]1O	3.9%
O[C@H]1[C@H]2[C@@H](O)CC(F)(F)CN2C[C@H]1O	12.2%

System: Helix pomatia
Test: Inhibition of snail beta-mannosidase using p-nitrophenyl glycoside as substrate assessed as release of p-nitrophenol at 1000 uM by spectrometric analysis relative to control

SMILES	inhibition
O[C@@H]1[C@@H]2[C@H](O)CC(F)(F)CN2C[C@@H]1O	0%
O[C@@H]1[C@@H]2[C@@H](O)C[C@H](F)CN2C[C@@H]1O	2.5%
O[C@H]1[C@H]2[C@@H](O)CC(F)(F)CN2C[C@H]1O	0.8%
